Test results reported in patent US20110071150A1 (priority 2009, published 2011).

The compounds below were run on Jurkat IL-2 Production (assay: Jurkat IL-2 Production Assay). Settings: Homo sapiens, Jurkat cell (ATCC), 18-20 h incubation, PHA 5 μg/mL with 1% FBS, or PMA/Ionomycin with 30% FBS (table does not say which).
Type: cell-based
Procedure, shortened: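 Jurkat cells were exposed to compound (0.25% DMSO final) for 10 min, then stimulated for 18–20 h at 37 °C. The 1% FBS condition used 5 μg/mL PHA; the high-serum condition (30% FBS) used 50 ng/mL PMA plus 500 ng/mL ionomycin. IC50 was derived from IL-2 production.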

| SMILES | IC50 [nM] |
| --- | --- |
| Cn1nc(-c2cccnc2)nc1-c1ccc2[nH]c(-c3c(F)cccc3F)cc2c1 [Example 114, 2-(2,6-Difluoro-phenyl)-5-(2-methyl-5-pyridin-3-yl-2H-[1,2,4]triazol-3-yl)-1H-indole] | 39 |
| Cc1cc(-c2nnco2)ccc1-c1ccc2[nH]c(-c3c(F)cccc3Cl)cc2c1 [Example 115, 2-(2-Chloro-6-fluoro-phenyl)-5-(2-methyl-4-[1,3,4]oxadiazol-2-yl-phenyl)-1H-indole] | 38 |
| Cn1nc(-c2cccnc2)nc1-c1ccc2[nH]c(-c3c(F)cccc3Cl)cc2c1 [Example 116, 2-(2-Chloro-6-fluoro-phenyl)-5-(2-methyl-5-pyridin-3-yl-2H-[1,2,4]-triazol-3-yl)-1H-indole] | 12 |
| COC(=O)c1cc(C)c(-c2ccc3[nH]c(-c4c(F)cccc4Cl)cc3c2)cn1 [Example 117, 5-[2-(2-Chloro-6-fluoro-phenyl)-1H-indol-5-yl]-4-methyl-pyridine-2-carboxylic acid methyl ester] | 19 |
| CNC(=O)c1cc(C)c(-c2ccc3[nH]c(-c4c(F)cccc4Cl)cc3c2)cn1 [Example 118, 5-[2-(2-Chloro-6-fluoro-phenyl)-1H-indol-5-yl]-4-methyl-pyridine-2-carboxylic acid methylamide] | 180 |
| Cc1cc(-c2nnco2)ncc1-c1ccc2[nH]c(-c3c(F)cccc3Cl)cc2c1 [Example 119, 2-(2-Chloro-6-fluoro-phenyl)-5-(4-methyl-6-[1,3,4]oxadiazol-2-yl-pyridin-3-yl)-1H-indole] | 14 |
| Cc1nnc(-c2cc(C)c(-c3ccc4[nH]c(-c5c(F)cccc5Cl)cc4c3)cn2)o1 [Example 120, 2-(2-Chloro-6-fluoro-phenyl)-5-[4-methyl-6-(5-methyl-[1,3,4]oxadiazol-2-yl)-pyridin-3-yl]-1H-indole] | 19 |
| COc1cc(C)c(-c2ccc3[nH]c(-c4c(F)cccc4Cl)cc3c2)cn1 [Example 121, 2-(2-Chloro-6-fluoro-phenyl)-5-(6-methoxy-4-methyl-pyridin-3-yl)-1H-indole] | 12 |
| COc1cnc(-c2ccc3[nH]c(-c4c(F)cccc4Cl)cc3c2)c(C)c1 [Example 122, 2-(2-Chloro-6-fluoro-phenyl)-5-(5-methoxy-3-methyl-pyridin-2-yl)-1H-indole] | 260 |
| COc1ccc(-c2ccc3[nH]c(-c4c(F)cccc4Cl)cc3c2)c(C)n1 [Example 123, 2-(2-Chloro-6-fluoro-phenyl)-5-(6-methoxy-2-methyl-pyridin-3-yl)-1H-indole] | 448 |
| CCn1nc(-c2cccnc2)nc1-c1ccc2[nH]c(-c3c(F)cccc3Cl)cc2c1 [Example 124, 2-(2-Chloro-6-fluoro-phenyl)-5-(2-ethyl-5-pyridin-3-yl-2H-[1,2,4]triazol-3-yl)-1H-indole] | 11 |
| Cc1sc(-c2ncco2)nc1-c1ccc2[nH]c(-c3c(F)cccc3Cl)cc2c1 [Example 125, 2-(2-Chloro-6-fluoro-phenyl)-5-(5-methyl-2-oxazol-2-yl-thiazol-4-yl)-1H-indole] | 49 |
| COC(=O)c1ccc(-c2ccc3[nH]c(-c4ccccc4Cl)cc3c2)c(C)c1 [Example 126] | 106 |
| CNC(=O)c1ccc(-c2ccc3[nH]c(-c4ccccc4Cl)cc3c2)c(C)c1 [Example 127, 4-[2-(2-Chloro-phenyl)-1H-indol-5-yl]-3,N-dimethyl-benzamide] | 991 |
| Cc1cc(C(N)=O)ccc1-c1ccc2[nH]c(-c3ccccc3Cl)cc2c1 [Example 128, 4-[2-(2-Chloro-phenyl)-1H-indol-5-yl]-3-methyl-benzamide] | 776 |
| Cc1cc(C#N)ccc1-c1ccc2[nH]c(-c3ccccc3Cl)cc2c1 [Example 129, 4-[2-(2-Chloro-phenyl)-1H-indol-5-yl]-3-methyl-benzonitrile] | 237 |
| Cc1cc(S(=O)(=O)N(C)C)ccc1-c1ccc2[nH]c(-c3ccccc3Cl)cc2c1 [Example 130, 4-[2-(2-Chloro-phenyl)-1H-indol-5-yl]-3,N,N-trimethyl-benzenesulfonamide] | 16 |
| COC(=O)c1ccc(-c2ccc3[nH]c(-c4ccc(C(=O)OC)cc4C)cc3c2)c(C)c1 [Example 131, 4-[5-(4-carbomethoxy-2-methyl-phenyl)-1H-indol-2-yl]-3-methyl-benzoic acid methyl ester] | 149 |
| COc1ccc(-c2cc3cc(-c4ccc(C#N)cc4C)ccc3[nH]2)c(Cl)c1 [Example 132, 4-[2-(2-Chloro-4-methoxy-phenyl)-1H-indol-5-yl]-3-methyl-benzonitrile] | 319 |
| Cc1cc(C#N)ccc1-c1ccc2[nH]c(-c3ccc(S(C)(=O)=O)cc3F)cc2c1 [Example 133, 4-[2-(2-Fluoro-4-methanesulfonyl-phenyl)-1H-indol-5-yl]-3-methyl-benzonitrile] | 976 |
| Cc1cc(C#N)ccc1-c1ccc2[nH]c(-c3cccc(C#N)c3F)cc2c1 [Example 134, 4-[2-(2-Fluoro-3-cyano-phenyl)-1H-indol-5-yl]-3-methyl-benzonitrile] | 163 |
| COc1cc(F)c(-c2cc3cc(-c4ccc(C#N)cc4C)ccc3[nH]2)c(F)c1 [Example 135, 4-(2-(2,6-difluoro-4-methoxyphenyl)-1H-indol-5-yl)-3-methylbenzonitrile] | 283 |

The remaining lines, values ahead:

| IC50 [nM] | SMILES |
| --- | --- |
| 370 | Cc1cc(C#N)ccc1-c1ccc2[nH]c(-c3ccccc3F)cc2c1 [Example 136, 4-(2-(2-fluorophenyl)-1H-indol-5-yl)-3-methylbenzonitrile] |
| 132 | Cc1cc(C#N)ccc1-c1ccc2[nH]c(-c3ccc(C#N)cc3C)cc2c1 [Example 137, 4-(2-(4-Cyano-2-methylphenyl)-1H-indol-5-yl)-3-methylbenzonitrile] |
| 101 | Cc1cc(C#N)ccc1-c1ccc2[nH]c(-c3cc(C#N)ccc3Cl)cc2c1 [Example 138, 4-(2-(2-Chloro-5-cyanophenyl)-1H-indol-5-yl)-3-methylbenzonitrile] |
| 162 | COc1ccc(-c2cc3cc(-c4ccc(C#N)cc4C)ccc3[nH]2)c(C)n1 [Example 139, 4-(2-(6-methoxy-2-methylpyridin-3-yl)-1H-indol-5-yl)-3-methylbenzonitrile] |
| 142 | COc1nccc(-c2cc3cc(-c4ccc(C#N)cc4C)ccc3[nH]2)c1Cl [Example 140, 4-(2-(3-chloro-2-methoxypyridin-4-yl)-1H-indol-5-yl)-3-methylbenzonitrile] |
| 660 | Cc1cc(C#N)ccc1-c1ccc2[nH]c(-c3ccc(F)cc3F)cc2c1 [Example 141, 4-(2-(2,4-difluorophenyl)-1H-indol-5-yl)-3-methylbenzonitrile] |
| 167 | COc1ccc(F)c(-c2cc3cc(-c4ccc(C#N)cc4C)ccc3[nH]2)c1F [Example 142, 4-(2-(2,6-difluoro-3-methoxyphenyl)-1H-indol-5-yl)-3-methylbenzonitrile] |
| 182 | COc1cc(C)c(-c2cc3cc(-c4ccc(C#N)cc4C)ccc3[nH]2)cn1 [Example 143, 4-(2-(6-methoxy-4-methylpyridin-3-yl)-1H-indol-5-yl)-3-methylbenzonitrile] |
| 96 | Cc1cc(C#N)ccc1-c1ccc2[nH]c(-c3cnccc3C)cc2c1 [Example 144, methyl-4-(2-(4-methylpyridin-3-yl)-1H-indol-5-yl)benzonitrile] |
| 89 | Cc1cc(C#N)ccc1-c1ccc2[nH]c(-c3ccncc3C)cc2c1 [Example 145, methyl-4-(2-(3-methylpyridin-4-yl)-1H-indol-5-yl)benzonitrile] |
| 150 | Cc1cc(C#N)ccc1-c1ccc2[nH]c(-c3sccc3C)cc2c1 [Example 146, methyl-4-(2-(3-methylthiophen-2-yl)-1H-indol-5-yl)benzonitrile] |
| 311 | Cc1cc(C#N)ccc1-c1ccc2[nH]c(-c3cccnc3C)cc2c1 [Example 147, methyl-4-(2-(2-methylpyridin-3-yl)-1H-indol-5-yl)benzonitrile] |
| 547 | Cc1nc(C)c(-c2cc3cc(-c4ccc(C#N)cc4C)ccc3[nH]2)s1 [Example 148, 4-(2-(2,4-dimethylthiazol-5-yl)-1H-indol-5-yl)-3-methylbenzonitrile] |
| 286 | Cc1cc(C#N)ccc1-c1ccc2[nH]c(-c3cscc3C)cc2c1 [Example 149, methyl-4-(2-(4-methylthiophen-3-yl)-1H-indol-5-yl)benzonitrile] |
| 618 | Cc1cc(C#N)ccc1-c1ccc2[nH]c(-c3ccnn3C)cc2c1 [Example 150, methyl-4-(2-(1-methyl-1H-pyrazol-5-yl)-1H-indol-5-yl)benzonitrile] |
| 158 | Cc1cc(C#N)ccc1-c1ccc2[nH]c(-c3c(C)noc3C)cc2c1 [Example 151, 4-(2-(3,5-dimethylisoxazol-4-yl)-1H-indol-5-yl)-3-methylbenzonitrile] |
| 731 | COc1cc(C)c(-c2ccc3[nH]c(-c4cccc(C#N)c4F)cc3c2)cn1 [Example 152, 2-fluoro-3-(5-(6-methoxy-4-methylpyridin-3-yl)-1H-indol-2-yl)benzonitrile] |
| 331 | COCCOc1cc(F)c(-c2cc3cc(-c4ccc(C#N)cc4C)ccc3[nH]2)c(F)c1 [Example 153, 4-(2-(2,6-difluoro-4-(2-methoxyethoxy)phenyl)-1H-indol-5-yl)-3-methylbenzonitrile] |
| 586 | Cc1cc(C#N)ccc1-c1ccc2[nH]c(-c3c(F)cc(OCCO)cc3F)cc2c1 [Example 154, 4-(2-(2,6-difluoro-4-(2-hydroxyethoxy)phenyl)-1H-indol-5-yl)-3-methylbenzonitrile] |
| 87 | Cc1cc(C#N)ccc1-c1ccc2[nH]c(-c3c(F)cc(OCCCC#N)cc3F)cc2c1 [Example 155, 4-(2-(4-(3-cyanopropoxy)-2,6-difluorophenyl)-1H-indol-5-yl)-3-methylbenzonitrile] |
| 130 | Cc1cc(C#N)ccc1-c1ccc2[nH]c(-c3c(F)cc(OCCCO)cc3F)cc2c1 [Example 156, 4-(2-(2,6-difluoro-4-(3-hydroxypropoxy)phenyl)-1H-indol-5-yl)-3-methylbenzonitrile] |
